Like-named read-outs stand apart in the source and are kept apart here.
Legend:
[1] = system: Enterococcus faecalis ATCC 29212; experiment: Antimicrobial activity, agar well diffusion; assay type: cell-based; conditions: Dose 0.6 mg/disk, dwell = 6 mm
[2] = system: Salmonella enteritidis ATCC 13076; experiment: Antimicrobial activity, agar well diffusion; assay type: cell-based; conditions: Dose 0.6 mg/disk, dwell = 6 mm
From the text: (§1) Twenty tested microorganisms including six Gram-positive bacteria (Bacillus subtilis ATCC 6633, Bacillus amyloliquefaciens 4BCL-YT, Staphylococcus aureus ATCC 25923, Listeria monocytogenes NBIMCC 8632, Enterococcus faecalis ATCC 19433), six Gram-negative bacteria (Salmonella enteritidis ATCC 13076, Klebsiella sp.—clinical isolate, Escherichia coli ATCC 25922, Proteus vulgaris ATCC 6380, Pseudomonas aeruginosa ATCC 9027), two yeasts (Candida albicans NBIMCC 74, Saccharomyces cerevisiae ATCC 9763), and six fungi (Aspergillus niger ATCC 1015, Aspergillus flavus, Penicillium sp., Rhizopus sp., Mucor sp.—plant isolates, Fusarium moniliforme ATCC 38932) from the collection of the Department of Microbiology at the University of Food Technologies—Plovdiv, Bulgaria, were selected for the antimicrobial activity test. The antimicrobial activity of the samples was determined by the agar well diffusion method. The tested bacteria B. subtilis and B. amyloliquefaciens were cultured on LBG agar at 30 °C. The test bacteria S. aureus, L. monocytogenes, E. faecalis, S. enteritidis, Klebsiella sp., E. coli, P. vulgaris, and P. aeruginosa were cultured on LBG agar at 37 °C for 24 h. The yeast C. albicans was cultured on MEA at 37 °C, while S. cerevisiae was cultured on MEA at 30 °C for 24 h. The fungi A. niger, A. flavus, Penicillium sp., Rhizopus sp., Mucor sp., and F. moniliforme were grown on MEA at 30 °C for 7 days or until sporulation. The inocula of the tested bacteria/yeasts was prepared by homogenization of a small amount of biomass in 5 mL of sterile 0.5% NaCl. The inocula of tested fungi were prepared by the addition of 5 mL of sterile 0.5% NaCl into the tubes. After stirring by vortex V-1 plus (Biosan), they were filtered and replaced in other tubes before use. The number of viable cells and fungal spores was determined using a bacterial counting chamber Thoma (Poly-Optik, GmbH, Bad Blankenburg, Germany). Their final concentrations were adjusted to 10^8 cfu/mL for bacterial/yeast cells and 10^5 cfu/mL for fungal spores and then inoculated in preliminarily melted and tempered at 45–48 °C LBG/MEA agar media. Next, the inoculated media were transferred in a quantity of 18 mL in sterile Petri plates (d = 90 mm) (Gosselin™, Hazebrouck, France) and allowed to harden. Then, six wells (d = 6 mm) per plate were cut, and triplicates of 60 μL of each extract were pipetted into the agar wells. The Petri plates were incubated in identical conditions. The antimicrobial activity was determined by measuring the diameter of the inhibition zones around the wells on the 24th and 48th h of incubation. Tested microorganisms with inhibition zones of 18 mm or more were considered sensitive; moderately sensitive were those in which the zones were from 12 to 18 mm; resistant were those in which the inhibition zones were up to 12 mm or completely missing.

[3] = system: Proteus vulgaris ATCC 6380; experiment: Antimicrobial activity, agar well diffusion; assay type: cell-based; conditions: Dose 0.6 mg/disk, dwell = 6 mm
From the text: as §1

[4] = system: Listeria monocytogenes NBIMCC 8632; experiment: Antimicrobial activity, agar well diffusion; assay type: cell-based; conditions: Dose 0.6 mg/disk, dwell = 6 mm
From the text: as §1

[5] = system: Pseudomonas aeruginosa ATCC 9027; experiment: Antimicrobial activity, agar well diffusion; assay type: cell-based; conditions: Dose 0.6 mg/disk, dwell = 6 mm
From the text: as §1

[6] = system: Bacillus amyloliquefaciens 4BCL-YT; experiment: Antimicrobial activity, agar well diffusion; assay type: cell-based; conditions: Dose 0.6 mg/disk, dwell = 6 mm
From the text: as §1

Aspergillus flavus = experiment: Antimicrobial activity, agar well diffusion; assay type: cell-based; conditions: Dose 0.6 mg/disk, dwell = 6 mm
From the text: as §1

[7] = system: Salmonella typhimurium NBIMCC 1672; experiment: Antimicrobial activity, agar well diffusion; assay type: cell-based; conditions: Dose 0.6 mg/disk, dwell = 6 mm
From the text: as §1

[8] = system: Micrococcus luteus 2YC-YT; experiment: Antimicrobial activity, agar well diffusion; assay type: cell-based; conditions: Dose 0.6 mg/disk, dwell = 6 mm
From the text: as §1

[9] = system: Escherichia coli ATCC 25922; experiment: Antimicrobial activity, agar well diffusion; assay type: cell-based; conditions: Dose 0.6 mg/disk, dwell = 6 mm
From the text: as §1

[10] = system: Bacillus subtilis ATCC 6633; experiment: Antimicrobial activity, agar well diffusion; assay type: cell-based; conditions: Dose 0.6 mg/disk, dwell = 6 mm
From the text: as §1

Rhizopus sp. = experiment: Antimicrobial activity, agar well diffusion; assay type: cell-based; conditions: Dose 0.6 mg/disk, dwell = 6 mm
From the text: as §1

[11] = system: Aspergillus niger ATCC 1015; experiment: Antimicrobial activity, agar well diffusion; assay type: cell-based; conditions: Dose 0.6 mg/disk, dwell = 6 mm
From the text: as §1

Penicillium chrysogenum = experiment: Antimicrobial activity, agar well diffusion; assay type: cell-based; conditions: Dose 0.6 mg/disk, dwell = 6 mm
From the text: as §1

[12] = system: Staphylococcus aureus ATCC 25923; experiment: Antimicrobial activity, agar well diffusion; assay type: cell-based; conditions: Dose 0.6 mg/disk, dwell = 6 mm
From the text: as §1

MTT cell viability assay [13] = assay type: cell-based; conditions: human, 72 h exposure, ± SD, read-out: In vitro cytotoxicity IC50
Experimental: (§2) To evaluate the biocompatibility of the hybrid compounds, their in vitro antiproliferative activity was assessed in a panel of human malignant cell lines of different origin (K-562 and LAMA-84 suspension-growing myeloid leukemia cells, positive for the Philadelphia chromosome, and the urothelial bladder carcinoma cell line T-24 of adherent type). Non-malignant murine fibroblast cells (CCL-1) were also used as a screening platform. All cell lines were purchased from the German Collection of Microorganisms and Cell Cultures (DSMZ GmbH, Braunschweig, Germany). Cell cultures were cultivated in a growth medium RPMI 1640 supplemented with 10% fetal bovine serum (FBS), and 5% L-glutamine and were incubated under standard conditions of 37 °C and 5% humidified CO2 atmosphere. The effects of the newly synthesized anthranilic derivatives on cell viability were measured using a validated colorimetric assay for evaluating cell viability, known as the Mosmann MTT method. Exponential-phased cells were harvested and seeded (100 μL/well) in 96-well plates at the appropriate density (3 × 10^5 for the suspension cultures LAMA-84 and K-562 and 1.5 × 10^5 for the adherent T-24 and CCL-1 cells). Following a 24 h incubation, cells were treated with various concentrations of the experimental compounds in the concentration range of 200–12.5 μM. After an exposure time of 72 h, filter-sterilized MTT substrate solution (5 mg/mL in PBS) was added to each well of the culture plate. A further 2–4 h incubation allowed for the formation of purple insoluble formazan crystals. The latter was dissolved in isopropyl alcohol solution containing 5% formic acid prior to absorbance measurement at 550 nm. Collected absorbance values were blanked against MTT and isopropanol solution and normalized to the mean value of untreated control (100% cell viability).

MTT cell viability assay [14] = assay type: cell-based, murine; conditions: mouse, CCL-1 normal fibroblast cells (adherent); CCL-1, MTT, 72 h exposure, ± SD; read-out: In vitro cytotoxicity IC50
Experimental: as §2

[15] = system: Klebsiella pneumoniae ATCC 13883; experiment: Antimicrobial activity, agar well diffusion; assay type: cell-based; conditions: Dose 0.6 mg/disk, dwell = 6 mm
[16] = K-562 myeloid leukemia cells (suspension), K-562, MTT
[17] = LAMA-84 myeloid leukemia cells (suspension), LAMA-84, MTT
[18] = T-24 urothelial bladder carcinoma cells (adherent), T-24, MTT

SMILES | Inhibition Zones [1] | Inhibition Zones [2] | Inhibition Zones [3] | Inhibition Zones [4] | Inhibition Zones [5] | Inhibition Zones [6] | Inhibition Zones (Aspergillus flavus) | Inhibition Zones [7] | Inhibition Zones [8] | Inhibition Zones [9] | Inhibition Zones [10] | Inhibition Zones (Rhizopus sp.) | Inhibition Zones [11] | Inhibition Zones (Penicillium chrysogenum) | Inhibition Zones [12] | IC50 at 72 h (MTT cell viability assay [13]; [16]) | IC50 at 72 h (MTT cell viability assay [13]; [17]) | IC50 at 72 h (MTT cell viability assay [13]; [18]) | IC50 at 72 h (MTT cell viability assay [14]) | Inhibition Zones [15]
O=C(Nc1ccccc1C(=O)NCCc1cccc(Cl)c1)c1ccccc1 [Compound 4b, 2-benzamido-N-(3-chlorophenethyl)benzamide] | 8 mm | 8 mm | 8 mm | 12 mm | 10 mm | 10 mm | 13 mm | 8 mm | 15 mm | 11 mm | 11 mm | 11 mm | 11 mm | 15 mm | 8 mm | 55.2 ± 4.7 µM | 60.7 ± 5.3 µM | 94.9 ± 5 µM | > 200 µM | –
CC(=O)Nc1ccccc1C(=O)NCCc1cccc(Cl)c1 [Compound 4a, 2-acetamido-N-(3-chlorophenethyl)benzamide] | 12 mm | 12 mm | 8 mm | 8 mm | 9 mm | – | 8 mm | 8 mm | 10 mm | 9 mm | 8 mm | 8 mm | 10 mm | 13 mm | – | > 200 µM | 112 ± 9.4 µM | > 200 µM | > 200 µM | 14 mm
Nc1ccccc1C(=O)NCCc1cccc(Cl)c1 [Compound 3, 2-amino-N-(3-chlorophenethyl)benzamide] | 12 mm | 12 mm | 8 mm | 12 mm | 14 mm | 11 mm | 20 mm | 12 mm | 19 mm | 13 mm | 12 mm | 20 mm | 20 mm | 20 mm | 8 mm | 154 ± 11.1 µM | 115 ± 10.5 µM | 137 ± 12.5 µM | > 200 µM | 8 mm

— article PMC10530836, “Synthesis, Molecular Docking, and Biological Evaluation of Novel Anthranilic Acid Hybrid and Its Diamides as Antispasmodics” (International Journal of Molecular Sciences, 2023)
